# Test results: PubChem BioAssay AID2060609 (Molecular Pharmacology Branch, DTP, NCI, 2025)
# pIC50: −log10 of the molar value. Where “and” joins values, the source holds several entries; their conditions need not be identical. Equal entries are not always repeated.
# Test system: 855422-203-R-J1-PDC complex spheroids, viability
# Assay: Anticancer human tumor 855422-203-R-J1-PDC patient-derived bladder carcinoma cell line growth inhibition [CLK]
# Settings: for viability, T/C: stronger effect = lower value
# Method in brief: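 Multi-cell-type spheroids combined patient-derived tumor cells with HUVEC endothelial cells and human mesenchymal stem cells. Paired agents were dosed in half-log steps down from about clinical Cmax, or from 10 microM where Cmax was unknown.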
# 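Note: spheroids exposed to drugs for seven days before readout.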
# 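Throughout, for viability, T/C: 100% = DMSO vehicle control wells.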
structure (smiles),measurement,setting,value
CC1COCCN1c1cc(C2(S(C)(=N)=O)CC2)nc(-c2ccnc3[nH]ccc23)n1 (centres undefined) + CNC(=O)c1ccc(Nc2nc(OC3CCCC3)c3c(-c4ccc5nc(C)oc5c4)c[nH]c3n2)c(OC)c1,pIC50,"curve of first compound, second compound 0.0316 µM",5.63
same,pIC50,"curve of first compound, second compound 0.1 µM",5.97
same,pIC50,"curve of first compound, second compound 0.316 µM",> 7.50
same,pIC50,"curve of first compound, second compound 1 µM",> 7.50
same,pIC50,"curve of first compound, second compound 3.16 µM",> 7.50
same,pIC50,"curve of first compound, second compound 10 µM",> 7.50
same,"viability, T/C","second compound 0.0316 µM, first compound 0.0316 µM",101%
same,"viability, T/C","second compound 0.0316 µM, first compound 0.1 µM",95.5%
same,"viability, T/C","second compound 0.0316 µM, first compound 0.316 µM",103%
same,"viability, T/C","second compound 0.0316 µM, first compound 1 µM",111%
same,"viability, T/C","second compound 0.0316 µM, first compound 3.16 µM",31.3%
same,"viability, T/C","second compound 0.0316 µM, first compound 10 µM",11.1%
same,"viability, T/C","second compound 0.1 µM, first compound 0.0316 µM",61.3%
same,"viability, T/C","second compound 0.1 µM, first compound 0.1 µM",65%
same,"viability, T/C","second compound 0.1 µM, first compound 0.316 µM",57.3%
same,"viability, T/C","second compound 0.1 µM, first compound 1 µM",52.4%
same,"viability, T/C","second compound 0.1 µM, first compound 3.16 µM",18.6%
same,"viability, T/C","second compound 0.1 µM, first compound 10 µM",11.6%
same,"viability, T/C","second compound 0.316 µM, first compound 0.0316 µM",23.3%
same,"viability, T/C","second compound 0.316 µM, first compound 0.1 µM",22%
same,"viability, T/C","second compound 0.316 µM, first compound 0.316 µM",23.2%
same,"viability, T/C","second compound 0.316 µM, first compound 1 µM",15.2%
same,"viability, T/C","second compound 0.316 µM, first compound 3.16 µM",11.8%
same,"viability, T/C","second compound 0.316 µM, first compound 10 µM",9.36%
same,"viability, T/C","second compound 1 µM, first compound 0.0316 µM",22.3%
same,"viability, T/C","second compound 1 µM, first compound 0.1 µM",20.9%
same,"viability, T/C","second compound 1 µM, first compound 0.316 µM",24.7%
same,"viability, T/C","second compound 1 µM, first compound 1 µM",17.8%
same,"viability, T/C","second compound 1 µM, first compound 3.16 µM",12.2%
same,"viability, T/C","second compound 1 µM, first compound 10 µM",6.79%
same,"viability, T/C","second compound 3.16 µM, first compound 0.0316 µM",22.9%
same,"viability, T/C","second compound 3.16 µM, first compound 0.1 µM",20.1%
same,"viability, T/C","second compound 3.16 µM, first compound 0.316 µM",18.5%
same,"viability, T/C","second compound 3.16 µM, first compound 1 µM",20%
same,"viability, T/C","second compound 3.16 µM, first compound 3.16 µM",10.8%
same,"viability, T/C","second compound 3.16 µM, first compound 10 µM",6.49%
same,"viability, T/C","second compound 10 µM, first compound 0.0316 µM",18.1%
same,"viability, T/C","second compound 10 µM, first compound 0.1 µM",18.4%
same,"viability, T/C","second compound 10 µM, first compound 0.316 µM",21%
same,"viability, T/C","second compound 10 µM, first compound 1 µM",20.2%
same,"viability, T/C","second compound 10 µM, first compound 3.16 µM",13.6%
same,"viability, T/C","second compound 10 µM, first compound 10 µM",7.4%
CC(Nc1ccc2c(c1)OCCn1cc(N3C(=O)OCC3C(F)F)nc1-2)C(N)=O (centres undefined),"viability, T/C",compound 0.0316 µM,94.9% and 74%
same,"viability, T/C",compound 0.1 µM,71% and 67.6%
same,"viability, T/C",compound 0.316 µM,50.9% and 45.7%
same,"viability, T/C",compound 1 µM,28.4% and 20.6%
same,"viability, T/C",compound 3.16 µM,21.2% and 20.3%
same,"viability, T/C",compound 10 µM,16.1% and 11.5%
same,pIC50,curve of compound,6.53 and 6.60
